This experiment concerns BDF1 mice, Adenocarcinoma 755 s.c., tumor weight T/C. Put plainly: NCI In Vivo Anticancer Drug Screen. Data for tumor model Adenocarcinoma 755 (subcutaneous) in B6D2F1 (BDF1) mice. Particulars: endpoint: mean tumor weight, higher = larger tumour. Summed up: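 In vivo antitumor screen on a transplantable tumor line. Result equals the measure in compound-treated animals divided by the same measure in vehicle controls.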

The mark [1] stands for this setting: dose: 50.0 mg/kg/injection, schedule: Q01DX011 (ip), vehicle: carboxymethylcellulose (CMC).
[2] abbreviates: dose: 2.0 mg/kg/injection, schedule: Q01DX011 (ip), vehicle: carboxymethylcellulose (CMC).

Values joined by “and” are separate entries in the source; they are usually repeats but may differ in a detail not shown here. Identical values can stand only once.

Usually T/C stands for the result in the treated group divided by that in the control group, in per cent. Turning to `CS(=O)(=O)OCCC(=O)Nc1ccc(NC(=O)CCOS(C)(=O)=O)cc1`, the T/C is 117 % of control (dose: 46.0 mg/kg/injection, schedule: Q01DX011 (ip), vehicle: methylcellulose (MC)); 111 % of control (dose: 91.0 mg/kg/injection, schedule: Q01DX011 (ip), vehicle: methylcellulose (MC)); 85 % of control (dose: 183.0 mg/kg/injection, schedule: Q01DX011 (ip), vehicle: methylcellulose (MC)); 117 % of control (dose: 375.0 mg/kg/injection, schedule: Q01DX011 (ip), vehicle: methylcellulose (MC)).

`O=C(OCC1OC(n2cnc3c(=S)nc[nH]c32)C(OC(=O)c2ccc(Cl)cc2)C1OC(=O)c1ccc(Cl)cc1)c1ccc(Cl)cc1` (stereo unspecified): the T/C reads like this: under setting [1], 85 % of control; (dose: 400.0 mg/kg/injection, schedule: Q01DX011 (ip), vehicle: carboxymethylcellulose (CMC)) 1 % of control and 5 % of control.

Turning to `CC(C)Cn1cnc2c(SCc3ccccc3F)nc(N)nc21`, the T/C is, setting by setting: (dose: 18.75 mg/kg/injection, schedule: Q01DX011 (ip), vehicle: methylcellulose (MC)) 80 % of control; (dose: 37.5 mg/kg/injection, schedule: Q01DX011 (ip), vehicle: methylcellulose (MC)) 65 % of control; (dose: 150.0 mg/kg/injection, schedule: Q01DX011 (ip), vehicle: methylcellulose (MC)) 28 % of control.

As to `COc1cc(-c2ccc(Nc3ccccc3C(=O)O)c(OC)c2)ccc1N`, the T/C reads like this: (dose: 10.0 mg/kg/injection, schedule: Q01DX011 (ip), vehicle: saline) 108 % of control; (dose: 20.0 mg/kg/injection, schedule: Q01DX011 (ip), vehicle: saline) 36 % of control; (dose: 40.0 mg/kg/injection, schedule: Q01DX011 (ip), vehicle: saline) 39 % of control; (dose: 80.0 mg/kg/injection, schedule: Q01DX011 (ip), vehicle: saline) 17 % of control.

As to `Nc1nc([S-])c2nc[nH]c2n1.Nc1nc([S-])c2nc[nH]c2n1.Nc1nc([S-])c2nc[nH]c2n1.[Pt]`, the T/C reads like this: (dose: 1.0 mg/kg/injection, schedule: Q01DX011 (ip), vehicle: carboxymethylcellulose (CMC)) 44 % of control; (dose: 1.3 mg/kg/injection, schedule: Q01DX011 (ip), vehicle: carboxymethylcellulose (CMC)) 65 % of control; under setting [2], 19 % of control; (dose: 2.5 mg/kg/injection, schedule: Q01DX011 (ip), vehicle: carboxymethylcellulose (CMC)) 12 % of control; (dose: 4.0 mg/kg/injection, schedule: Q01DX011 (ip), vehicle: carboxymethylcellulose (CMC)) 2 % of control.

As to `OCC1OC(n2cnc3c(I)ncnc32)C(O)C1O` (stereo unspecified), the T/C by setting is: (dose: 30.0 mg/kg/injection, schedule: Q01DX011 (ip), vehicle: saline) 73 % of control; (dose: 60.0 mg/kg/injection, schedule: Q01DX011 (ip), vehicle: saline) 73 % of control; (dose: 120.0 mg/kg/injection, schedule: Q01DX011 (ip), vehicle: saline) 49 % of control; (dose: 240.0 mg/kg/injection, schedule: Q01DX011 (ip), vehicle: saline) 29 % of control.

`CSc1ncc(Br)c(Nc2ccccc2Cl)n1`: the T/C by setting is: (dose: 15.0 mg/kg/injection, schedule: Q01DX011 (ip), vehicle: methylcellulose (MC)) 110 % of control; (dose: 31.0 mg/kg/injection, schedule: Q01DX011 (ip), vehicle: methylcellulose (MC)) 104 % of control; (dose: 250.0 mg/kg/injection, schedule: Q01DX011 (ip), vehicle: methylcellulose (MC)) 155 % of control.

As to `O=C(OCC1OC(n2cnc3c(=O)[nH]cnc32)CC1OC(=O)c1ccccc1)c1ccccc1` (stereo unspecified), the T/C by setting is: (dose: 60.0 mg/kg/injection, schedule: Q01DX011 (ip), vehicle: carboxymethylcellulose (CMC)) 101 % of control; (dose: 120.0 mg/kg/injection, schedule: Q01DX011 (ip), vehicle: carboxymethylcellulose (CMC)) 90 % of control.

For the compound `COc1ccc2c(c1)CCC(c1ccccc1)=C2c1ccc(OCCN2CCCC2)cc1`, the T/C is, setting by setting: (dose: 3.0 mg/kg/injection, schedule: Q01DX011 (sc), vehicle: steriod suspending solution) 86 % of control; (dose: 6.0 mg/kg/injection, schedule: Q01DX011 (sc), vehicle: steriod suspending solution) 82 % of control; (dose: 12.0 mg/kg/injection, schedule: Q01DX011 (sc), vehicle: steriod suspending solution) 34 % of control; (dose: 25.0 mg/kg/injection, schedule: Q01DX011 (sc), vehicle: steriod suspending solution) 26 % of control.

Turning to `Cn1c(=O)c2[nH]c(CCl)nc2n(C)c1=O`, the T/C (dose: 25.0 mg/kg/injection, schedule: Q01DX011 (ip), vehicle: methylcellulose (MC)) is 86 % of control.

Regarding `S=C(N=Nc1ccccc1)NNc1ccccc1`, the T/C under setting [1] was 113 % of control and the T/C (dose: 75.0 mg/kg/injection, schedule: Q01DX011 (ip), vehicle: carboxymethylcellulose (CMC)) was 152 % of control.

Turning to `CCN(CC)CCCC(C)Nc1c2ccc(Cl)cc2nc2ccc(OC)cc12` (stereo unspecified), the T/C runs as follows: (dose: 25.0 mg/kg/injection, schedule: Q01DX011 (ip), vehicle: carboxymethylcellulose (CMC)) 68 % of control; under setting [1], 62 % of control; (dose: 100.0 mg/kg/injection, schedule: Q01DX011 (ip), vehicle: carboxymethylcellulose (CMC)) 52 % of control.

For `Cn1c(N)c(N=O)c(=O)n(C)c1=O`, the T/C by setting is: (dose: 175.0 mg/kg/injection, schedule: Q01DX011 (oral), vehicle: other) 99 % of control; (dose: 250.0 mg/kg/injection, schedule: Q01DX011 (ip), vehicle: carboxymethylcellulose (CMC)) 81 % of control; (dose: 350.0 mg/kg/injection, schedule: Q01DX011 (ip), vehicle: carboxymethylcellulose (CMC)) 28 % of control; (dose: 350.0 mg/kg/injection, schedule: Q01DX011 (oral), vehicle: other) 80 % of control; (dose: 1400.0 mg/kg/injection, schedule: Q01DX011 (oral), vehicle: methylcellulose (MC)) 105 % of control; (dose: 2000.0 mg/kg/injection, schedule: Q01DX011 (oral), vehicle: other) 74 % of control. Moreover, the T/C (dose: 2800.0 mg/kg/injection, schedule: Q01DX011 (oral), vehicle: other) was 118 % of control.

Take `CN(Cc1cnc2nc(N)nc(N)c2n1)c1ccc(C(=O)N[C@@H](CCC(=O)O)C(=O)O)cc1`: the T/C is, setting by setting: (dose: 0.56 mg/kg/injection, schedule: Q01DX011 (ip), vehicle: carboxymethylcellulose (CMC)) 94 % of control; (dose: 0.84 mg/kg/injection, schedule: Q01DX011 (ip), vehicle: carboxymethylcellulose (CMC)) 57 % of control; (dose: 1.0 mg/kg/injection, schedule: Q01DX011 (ip), vehicle: other) 77 % of control; (dose: 1.05 mg/kg/injection, schedule: Q01DX011 (ip), vehicle: carboxymethylcellulose (CMC)) 48 % of control; (dose: 1.13 mg/kg/injection, schedule: Q01DX011 (ip), vehicle: carboxymethylcellulose (CMC)) 48 % of control; (dose: 1.4 mg/kg/injection, schedule: Q01DX011 (ip), vehicle: carboxymethylcellulose (CMC)) 36 % of control. Further, the T/C under setting [2] was 49 % of control; the T/C (dose: 2.0 mg/kg/injection, schedule: Q01DX011 (ip), vehicle: other) is 43 % of control; the T/C (dose: 2.1 mg/kg/injection, schedule: Q01DX011 (ip), vehicle: carboxymethylcellulose (CMC)) is 27 % of control; the T/C (dose: 2.25 mg/kg/injection, schedule: Q01DX011 (ip), vehicle: carboxymethylcellulose (CMC)) is 96 % of control; the T/C (dose: 4.5 mg/kg/injection, schedule: Q01DX011 (ip), vehicle: carboxymethylcellulose (CMC)) is 48 % of control; the T/C (dose: 263.0 micrograms/kg/injection, schedule: Q01DX011 (ip), vehicle: carboxymethylcellulose (CMC)) is 66 % of control. The T/C was 53 % of control (dose: 525.0 micrograms/kg/injection, schedule: Q01DX011 (ip), vehicle: carboxymethylcellulose (CMC)); 63 % of control (dose: 563.0 micrograms/kg/injection, schedule: Q01DX011 (ip), vehicle: carboxymethylcellulose (CMC)); 68 % of control (dose: 1050.0 micrograms/kg/injection, schedule: Q01DX011 (ip), vehicle: carboxymethylcellulose (CMC)); 97 % of control (dose: 1125.0 micrograms/kg/injection, schedule: Q01DX011 (ip), vehicle: carboxymethylcellulose (CMC)); 31 % of control (dose: 2100.0 micrograms/kg/injection, schedule: Q01DX011 (ip), vehicle: carboxymethylcellulose (CMC)); 68 % of control (dose: 2250.0 micrograms/kg/injection, schedule: Q01DX011 (ip), vehicle: carboxymethylcellulose (CMC)).

As for `CCOC(=O)c1ccc(N=NN(C)C)cc1`, the T/C reads like this: (dose: 8.0 mg/kg/injection, schedule: Q01DX011 (ip), vehicle: carboxymethylcellulose (CMC)) 92 % of control; (dose: 16.0 mg/kg/injection, schedule: Q01DX011 (ip), vehicle: carboxymethylcellulose (CMC)) 94 % of control; (dose: 31.0 mg/kg/injection, schedule: Q01DX011 (ip), vehicle: carboxymethylcellulose (CMC)) 113 % of control; (dose: 62.0 mg/kg/injection, schedule: Q01DX011 (ip), vehicle: carboxymethylcellulose (CMC)) 95 % of control.

Source of the values: PubChem BioAssay AID180 (DTP/NCI, 2004).
